Here are results for 21 compounds from patent EP1156045A1, “AMIDE DERIVATIVES AND DRUG COMPOSITIONS” (Nippon Shinyaku Co., Ltd., priority 1999, dated 2000).

Counter-ions that a name gives are not always drawn.

The test system of one data set is TGF-β. Description: Antagonistic action against TGF-β (type I procollagen α2 promoter-luciferase reporter, TGF-β1 stimulation). As to conditions: mink lung epithelial cells (Mv1Lu); drug 1 µg/ml, TGF-β1 10 ng/ml; 24 hours; luciferase activity; read-out: Rate of inhibition (%). The class given is cell-based. The method, then:
The test was carried out according to the method described in J. Clin. Invest., 86, 1489-1495 (1990) and J. Biol. Chem. 265, 13351-13356 (1990). A chimera plasmid was produced in which the promoter region of type I procollagen α2 gene was ligated with a luciferase gene. This plasmid was then transfected into mink lung epithelial cells (Mv1Lu) to produce a cell line stably expressing the luciferase gene under the control of the […]. The drug (1 µg/ml) and TGF-β1 (10 ng/ml) were added to Mv1Lu cells, which were then cultured for 24 hours. Then, the activity of luciferase in the cells was measured by a chemiluminescence method. The rate of inhibition was calculated from the following formula, the rate of inhibition being defined as 100% when the measured luciferase activity was equal to that in the absence of stimulation with TGF-β1: Rate of inhibition = (Lb-Lc)/(Lb-La) × 100 [formula] In this formula, La represents the luciferase activity in the absence of stimulation with TGF-β1, Lb represents the luciferase activity in the presence of stimulation with TGF-β1, and Lc represents the luciferase activity in the presence of TGF-β1 and the test drug.
(A reporter such as luciferase makes a cellular process visible.)

A short description of the next data set: Acute toxicity. The data set is classed as in vivo. The settings on record: mice; orally, 300 mg/kg suspension; observed for a week after administration. The method, then: Each of the compounds in Examples 1, 5, 6, 33, 34, 39, and 48 was administered.
The subject of data set [1] is promoter region of the TGF-β1 gene. Kind of data set: Inhibitory effect on expression of TGF-β mRNA (TGF-β1 promoter-luciferase reporter, TNF-α stimulation). As to conditions: mink lung epithelial cells (Mv1Lu); drug 1 µg/ml, TNF-α 10 ng/ml; 24 hours; luciferase activity; read-out: Rate of inhibition (%). The data set is classed as cell-based. The method, then:
The inhibitory effect of the compounds of the present invention on TGF-β production was evaluated by measuring the inhibition of TGF-β mRNA expression according to the method described in J. Biol. Chem., 264, 402-408 (1989). A chimera plasmid was produced in which the promoter region of the TGF-β1 gene was ligated with a luciferase gene. This plasmid was then transfected into mink lung epithelial cells (Mv1Lu) to produce a cell line stably expressing the luciferase gene under the control of the TGF-β1 promoter. The drug (1 µg/ml) and TNF-α (10 ng/ml) were added to Mv1Lu cells, which were then cultured for 24 hours. Then the activity of luciferase in the cells was measured by a chemiluminescence method. The rate of inhibition was calculated from the following formula, the rate of inhibition being defined as 100% when the measured luciferase activity was equal to that in the absence of stimulation with TNF-α: Rate of inhibition = (Le-Lf)/(Le-Ld) × 100 [formula] In this formula, Ld represents the luciferase activity in the absence of TNF-α, Le represents the luciferase activity in the presence of TNF-α, and Lf represents the luciferase activity in the presence of TNF-α and the test drug.

For the next data set, the system named is TGF-β1. Description: Inhibition of TGF-β production (TGF-β1 released into the medium, ELISA). The class given is cell-based. The settings on record: human mesangial cells immortalized with SV40, cultured 4 days, TGF-β1 released during the last 2 days; for inhibition at 1 µg/mL: Mesangial cell, read-out: Rate of inhibition (%). The method, then:
The test was carried out according to the method described in Jpn. J. Pharmacol, 60, 91-96 (1992). That is, human mesangial cells immortalized with SV40 were cultured in 24-well plates, and then the medium was changed to a serum-free medium. The test drugs were added at concentrations of 1 µg/ml or 10 µg/ml, and the cells were cultured for 4 days. The amounts of TGF-β1 (a major type of-TGF-β) released into the medium during the last 2 days were quantified by ELISA kits. The rate of inhibition (%) was calculated from the following formula: Rate of inhibition = (Ta-Tb)/Ta × 100 [formula] In this formula, Ta represents the amount of TGF-β1 released into the medium in the absence of the test drug, and Tb represents the amount of TGF-β1 released into the medium in the presence of the test drug.
On the technique in general: In an ELISA, binding on a coated surface is turned into a signal by an enzyme label.

As a reminder, the inhibition is the drop in the measured response relative to a control, in per cent. Take `Cc1ccc2c(c1)c(C(=O)N1CCN(c3ccccn3)CC1)c(-c1ccccc1)n2C.Cl` [Example 1, 1-(1,5-Dimethyl-2-phenylindol-3-ylcarbonyl)-4-(2-pyridyl)piperazine hydrochloride]: in the data set with TGF-β, the inhibition at 1 µg/mL turned out to be 31.2%. Besides, the deaths entry in the data set “Acute toxicity” was “No deaths were observed”.
In the case of `Cn1c(-c2ccccc2)c(C(=O)N2CC[N+]([O-])(c3ccccn3)CC2)c2ccccc21` [Example 5, 1-(1-Methyl-2-phenylindol-3-ylcarbonyl)-4-(2-pyridyl)piperazine-4-oxide], the inhibition at 1 µg/mL in data set [1] came out at 28.2%; with TGF-β1 (concentration 1 µg/ml) it was 20.9%; with TGF-β, 27.4%. For the same compound, in the data set “Acute toxicity”, the deaths entry was “No deaths were observed”.
The corresponding values for `Cl.Cn1c(-c2ccccc2)c(C(=O)N2CCN(c3ccccn3)CC2)c2ccccc21` [Example 6, 1-(1-Methyl-2-phenylindol-3-ylcarbonyl)-4-(2-pyridyl)piperazine hydrochloride] are 50.1%, 30.2%, 44.6% and “No deaths were observed”.
Consider `Cc1ccc2c(c1)c(C(=O)N1CCN(c3cccnc3)CC1)c(-c1ccccc1)n2C.Cl.Cl` [Example 33, 1-(1,5-Dimethyl-2-phenylindol-3-ylcarbonyl)-4-(3-pyridyl)piperazine dihydrochloride], for which the inhibition at 1 µg/mL in data set [1] amounted to 43.2%; in the data set on TGF-β, 50.6%. Besides, in “Acute toxicity”, the deaths entry was “No deaths were observed”.
Take `Cc1ccc2c(c1)c(C(=O)N1CCN(c3ccncc3)CC1)c(-c1ccccc1)n2C.Cl` [Example 34, 1-(1,5-Dimethyl-2-phenylindol-3-ylcarbonyl)-4-(4-pyridyl)piperazine hydrochloride]: the inhibition at 1 µg/mL with TGF-β stood at 33.8%. Besides, the deaths entry in “Acute toxicity” is “No deaths were observed”.
For `Cc1cc2c(C(=O)N3CCN(c4ccncc4)CC3)c(-c3ccccc3)n(C)c2cc1C.Cl` [Example 39, 1-(1,5,6-Trimethyl-2-phenylindol-3-ylcarbonyl)-4-(4-pyridyl)-piperazine hydrochloride], the inhibition at 1 µg/mL amounted to 27.4% in data set [1] and 52.4% with TGF-β. Further, the deaths result in the data set “Acute toxicity” is “No deaths were observed”.
Take `Cl.Cn1c(-c2ccccc2)c(C(=O)N2CCN(c3ccc([N+](=O)[O-])cn3)CC2)c2ccccc21` [Example 48, 1-(1-Methyl-2-phenylindol-3-ylcarbonyl)-4-(5-nitro-2-pyridyl)-piperazine hydrochloride]: the inhibition at 1 µg/mL was found to be 74.7% in data set [1] and 63.7% in the data set with TGF-β. Further, in the data set “Acute toxicity”, the deaths entry is on record as “No deaths were observed”.
For `Cc1ccc2c(c1)c(C(=O)N1CCN(c3ccc([N+](=O)[O-])cn3)CC1)c(-c1ccccc1)n2C` [Example 58, 1-(1,5-Dimethyl-2-phenylindol-3-ylcarbonyl)-4-(5-nitro-2-pyridyl)-piperazine hydrochloride], the inhibition at 1 µg/mL in data set [1] was found to be 30.2%; in the data set with TGF-β1 (concentration 1 µg/ml), 27.6%; in the data set with TGF-β, 34.8%.
As for `COc1ccc2c(c1)c(C(=O)NC1CC3CCC(C1)N3C)c(-c1ccccc1)n2C.Cl` (stereo not drawn) [Example 61, N-(endo-8-Methyl-8-azabicyclo[3.2.1]octa-3-yl)-5-methoxy-1-methyl-2-phenylindole-3-carboxamide hydrochloride], the “Rate of inhibition (%)” value with TGF-β1 (concentration 1 µg/ml) was found to be 69.7%.
On the same count and under the same terms, as for `Cc1ccc2c(C(=O)N[C@@H]3C[C@H]4CC[C@@H](C3)N4C)c(-c3ccccc3)n(C)c2c1.Cl` [Example 63, N-(endo-8-Methyl-8-azabicyclo[3.2.1]octa-3-yl)-1,6-dimethyl-2-phenylindole-3-carboxamide hydrochloride], the figure is 40.7%.
Regarding `Cc1ccc2c(c1)c(C(=O)N[C@H]1C[C@H]3CC[C@@H](C1)N3C)c(-c1ccccc1)n2C.Cl` [Example 117, N-(endo-8-Methyl-8-azabicyclo[3.2.1]octa-3-yl)-1,5-dimethyl-2-phenylindole-3-carboxamide hydrochloride], the “Rate of inhibition (%)” value with TGF-β1 (concentration 1 µg/ml) was 47.4%.
As for `Cn1c(-c2ccccc2)c(C(=O)N2CCCN(c3ccccn3)CC2)c2ccccc21` [Example 118, 1-(1-Methyl-2-phenylindol-3-ylcarbonyl)-4-(2-pyridyl)-homopiperazine dihydrochloride], the values for the inhibition at 1 µg/mL (in data set [1]; in the data set with TGF-β) were 48.8% and 51.8%, respectively.
Turning to `Cc1ccc2c(c1)c(C(=O)N1CCCN(c3ccccn3)CC1)c(-c1ccccc1)n2C` [Example 119, 1-(1,5-Dimethyl-2-phenylindol-3-ylcarbonyl)-4-(2-pyridyl)-homopiperazine hydrochloride], the inhibition at 1 µg/mL in data set [1] turned out to be 39.2%; in the data set with TGF-β, 53.8%.
On to `Cn1c(-c2ccccc2)c(C(=O)N2CCCN(c3cccnc3)CC2)c2ccccc21` [Example 120, 1-(1-Methyl-2-phenylindol-3-ylcarbonyl)-4-(3-pyridyl)homopiperazine hydrochloride], for which the figures for the inhibition at 1 µg/mL (in data set [1]; with TGF-β) were 27.7% and 44.9%, respectively.
Regarding `Cc1ccc2c(c1)c(C(=O)N1CCCN(c3cccnc3)CC1)c(-c1ccccc1)n2C` [Example 121, 1-(1,5-Dimethyl-2-phenylindol-3-ylcarbonyl)-4-(3-pyridyl)-homopiperazine hydrochloride], the inhibition at 1 µg/mL in data set [1] was determined as 40.6%; in the data set on TGF-β, 59%.
With `Cc1ccc2c(c1)c(C(=O)N1CCCN(c3ccc([N+](=O)[O-])cn3)CC1)c(-c1ccccc1)n2C` [Example 129, 1-(1,5-Dimethyl-2-phenylindol-3-ylcarbonyl)-4-(5-nitro-2 pyridyl)homopiperazine], in the data set with TGF-β, the inhibition at 1 µg/mL amounted to 64.3%.
Regarding `Cc1ccc2c(c1)c(C(=O)N1CCCN(c3ccc(NS(C)(=O)=O)cn3)CC1)c(-c1ccccc1)n2C` [Example 174, 1-(1,5-Dimethyl-2-phenylindol-3-ylcarbonyl)-4-(5-methane-sulfonylamino-2-pyridyl)homopiperazine], the values for the inhibition at 1 µg/mL (in data set [1]; in the data set with TGF-β) were 24.8% and 49.8%, respectively.
Consider `COC(=O)c1ccc(N2CCCN(C(=O)c3c(-c4ccccc4)n(C)c4ccc(C)cc34)CC2)nc1` [Example 178, 1-(1,5-Dimethyl-2-phenylindol-3-ylcarbonyl)-4-(5-carbomethoxy-2-pyridyl)-homopiperazine], for which the inhibition at 1 µg/mL was 43% in data set [1] and 102% in the data set on TGF-β.
As for `CC(=O)Nc1ccc(N2CCCN(C(=O)c3c(-c4ccccc4)n(C)c4ccc(C)cc34)CC2)nc1` [Example 180, 1-(1,5-Dimethyl-2-phenylindol-3-ylcarbonyl)-4-(5-acetylamino-2-pyridyl)homopiperazine], the inhibition at 1 µg/mL in data set [1] was determined as 25.5%; with TGF-β it was 48.3%.
As for `CCN(CC)S(=O)(=O)c1ccc(N2CCCN(C(=O)c3c(-c4ccccc4)n(C)c4ccc(C)cc34)CC2)nc1` [Example 183, 1-(1,5-Dimethyl-2-phenylindol-3-ylcarbonyl)-4-(5-diethylamino-sulfonyl-2-pyridyl)homopiperazine], the results for the inhibition at 1 µg/mL (in data set [1]; in the data set on TGF-β) were 46.9% and 79.3%, respectively.
For the compound `Cc1ccc(=O)n(-c2ccccc2)c1` [Perfenidone, reference compound], in the data set on TGF-β1 (concentration 10 µg/ml), the “Rate of inhibition (%)” value was determined as 1.7%.
